Reference: PMC9412362, “Design, Synthesis, and Characterization of Novel Coordination Compounds of Benzimidazole Derivatives with Cadmium” (Pharmaceutics, 2022)
Values after ≈ are worked out from the molar mass of the structure shown.

How the values were obtained:
[1] = test system: S. typhimurium ATCC 14028; test: MIC, micro-dilution broth method; format: cell-based, Salmonella Typhimurium; conditions: Gram-negative bacteria
Description: (§1) Samples of complexes (about 20 mg) were digested in a concentrated mixture of 36% HCl (1 mL) and 65% HNO3 (6 mL). The contents of Cd (II) in the solid complexes were determined with an F-AAS spectrometer (Analytik Jena, contraAA 300, Jena, Germany) with a continuous source of light and using an air/acetylene flame (Analytik Jena, contraAA 300). Absorbances were measured at the analytical spectral lines at 228.8 nm for Cd (II). The limit of quantification was 0.004 mg/L for Cd (II). The solid samples were decomposed using an Anton Paar Multiwave 3000 (Graz, Austria) closed-system instrument. Mineralization was carried out for 45 min at 240 °C under a pressure of 60 bar. The contents of carbon, hydrogen, and nitrogen were determined with an instrument from Vario Micro Company Elementar Analysensysteme GmbH (Langenselbold, Germany). FTIR spectra were recorded with an IR Tracer-100 Schimadzu Spectrometer (4000–600 cm^−1 with an accuracy of recording of 1 cm^−1, Kyoto, Japan) using KBr pellets. The thermal analyses were carried out with a Netzsch STA 449 F1 Jupiter thermoanalyzer (Netzsch-Geratebau GmbH, Selb, Germany) coupled with a Netzsch Aeolos Quadro QMS 403 mass spectrometer (Netzsch-Geratebau GmbH, Selb, Germany). The samples were heated up to 1000 °C in corundum crucibles with a heating rate of 10 °C/min in an atmosphere of synthetic air (20% O2, 80% N2). The cytotoxic effects of the compounds were evaluated using glioblastoma (T98G), neuroblastoma (SK-N-AS), and lung adenocarcinoma (A549) cell lines and normal human skin fibroblasts (CCD-1059Sk). T98G and SK-N-AS cells were cultured in high-glucose DMEM and A549 cells were cultured in DMEM/F12, while CCD-1059Sk cells were cultured in MEM. All media were supplemented with 10% (FBS), 100 U/mL of penicillin, and […] of streptomycin (PenStrep). Cells were incubated at 37 °C in a humidified atmosphere of 5% CO2. Stock solutions were prepared by dissolving the compounds in sterile dimethyl sulfoxide (DMSO) to obtain a concentration of 50 mg/mL. The cells were seeded into sterile 96-well plates (Nunc) at a density of 1 × 10^5 cells/mL. After 24 h of incubation, the medium was removed from each well, and then the cells were incubated for the next 24 h with different concentrations of the tested compounds (1–100 µg/mL) in their respective media containing 2% FBS. The cytotoxicity of the compounds was evaluated using an MTT assay, which was based on the conversion of 3-(4,5-dimethylthiazol-2-yl)-2,5-diphenyltetrazolium bromide (MTT) into dark-blue formazan crystals. Briefly, after 24 h of incubation of the cells with varying concentrations of the tested compounds, all culture media were removed from the plates. The cells were washed with PBS, and then 100 µL of medium containing 10% MTT solution (5 mg/mL) was added to each well. After 3 h of incubation, 100 µL (per well) of 10% SDS buffer solution was added to solubilize the formazan crystals. After overnight incubation, the absorbance was measured at 570 nm using a microplate reader (Epoch, BioTek Instruments). Experiments were repeated twice, and the measurements in each experiment were run in triplicate. The viability of the investigated cells was expressed as the percentage of the viability of the untreated cells, and the results were transformed into IC50 values (expressed as mean ± SD). The complexes were screened for antibacterial and antifungal activity by using the micro-dilution broth method with Mueller–Hinton broth for the growth of bacteria or Mueller–Hinton broth with 2% glucose for the growth of fungi. […]

CCD-1059Sk cells = test: MTT cytotoxicity assay, normal human skin fibroblasts CCD-1059Sk; format: cell-based; conditions: normal human fibroblasts CCD-1059Sk, MTT assay after 24 h of incubation; read-out: IC50 ± SD, CCD-1059-Sk
Description: as §1

[2] = test system: S. epidermidis ATCC 12228; test: MIC, micro-dilution broth method; format: cell-based, Staphylococcus epidermidis; conditions: Gram-positive bacteria; micro-dilution broth
Description: as §1

E. coli ATCC 25922 = test: MIC, micro-dilution broth method; format: cell-based, Escherichia coli; conditions: for MIC, E. coli ATCC 25922: Gram-negative bacteria
Description: as §1

C. albicans ATCC 102231 = test: MIC, micro-dilution broth method; format: cell-based, Candida albicans; conditions: Yeasts; micro-dilution broth with 2% glucose
Description: as §1

A549 cells = test: MTT cytotoxicity assay, lung adenocarcinoma A549; format: cell-based, human; conditions: lung carcinoma A549, MTT assay after 24 h of incubation; read-out: IC50 ± SD, A549
Description: as §1

SK-N-AS cells = test: MTT cytotoxicity assay, neuroblastoma SK-N-AS; format: cell-based, human; conditions: MTT assay after 24 h of incubation, read-out: IC50 ± SD, SK-N-AS
Description: as §1

C. glabrata ATCC 2091 = test: MIC, micro-dilution broth method; format: cell-based; conditions: Yeasts; micro-dilution broth with 2% glucose
Description: as §1

K. pneumoniae ATCC 13883 = test: MIC, micro-dilution broth method; format: cell-based, Klebsiella pneumoniae; conditions: for MIC, K. pneumoniae ATCC 13883: Gram-negative bacteria
Description: as §1

B. subtilis ATCC 6633 = test: MIC, micro-dilution broth method; format: cell-based, Bacillus subtilis; conditions: Gram-positive bacteria; micro-dilution broth
Description: as §1

S. aureus ATCC 25923 = test: MIC, micro-dilution broth method; format: cell-based, Staphylococcus aureus; conditions: Gram-positive bacteria; micro-dilution broth
Description: as §1

M. luteus ATCC 10240 = test: MIC, micro-dilution broth method; format: cell-based, Micrococcus luteus; conditions: Gram-positive bacteria; micro-dilution broth
Description: as §1

P. aeruginosa ATCC 9027 = test: MIC, micro-dilution broth method; format: cell-based, Pseudomonas aeruginosa; conditions: for MIC, P. aeruginosa ATCC 9027: Gram-negative bacteria
Description: as §1

[3] = test system: C. parapsilosis ATCC 22019; test: MIC, micro-dilution broth method; format: cell-based, Candida parapsilosis; conditions: Yeasts; micro-dilution broth with 2% glucose
Description: as §1

B. cereus ATCC 10876 = test: MIC, micro-dilution broth method; format: cell-based, Bacillus cereus; conditions: Gram-positive bacteria; micro-dilution broth
Description: as §1

E. faecalis ATCC 29212 = test: MIC, micro-dilution broth method; format: cell-based, Enterococcus faecalis; conditions: Gram-positive bacteria; micro-dilution broth
Description: as §1

T98G cells = test: MTT cytotoxicity assay, glioblastoma T98G; format: cell-based, human; conditions: MTT assay after 24 h of incubation, read-out: IC50 ± SD, T98G
Description: as §1

P. mirabilis ATCC 12453 = test: MIC, micro-dilution broth method; format: cell-based, Proteus mirabilis; conditions: for MIC, P. mirabilis ATCC 12453: Gram-negative bacteria
Description: as §1

SMILES | MIC, S. typhimurium ATCC 14028 [1] | IC50 (CCD-1059Sk cells) | MIC, S. epidermidis ATCC 12228 [2] | MIC, E. coli ATCC 25922 (E. coli ATCC 25922) | MIC, C. albicans ATCC 102231 (C. albicans ATCC 102231) | IC50 (A549 cells) | IC50 (SK-N-AS cells) | MIC, C. glabrata ATCC 2091 (C. glabrata ATCC 2091) | MIC, K. pneumoniae ATCC 13883 (K. pneumoniae ATCC 13883) | MIC, B. subtilis ATCC 6633 (B. subtilis ATCC 6633) | MIC, S. aureus ATCC 25923 (S. aureus ATCC 25923) | MIC, M. luteus ATCC 10240 (M. luteus ATCC 10240) | MIC, P. aeruginosa ATCC 9027 (P. aeruginosa ATCC 9027) | MIC, C. parapsilosis ATCC 22019 [3] | MIC, B. cereus ATCC 10876 (B. cereus ATCC 10876) | MIC, E. faecalis ATCC 29212 (E. faecalis ATCC 29212) | IC50 (T98G cells) | MIC, P. mirabilis ATCC 12453 (P. mirabilis ATCC 12453) | further results
O.[Cl][Cd][Cl].c1cnc2[nH]c(-c3ccncc3)nc2c1 [C2, Cd(L2)Cl2∙H2O] | >1000 mg/L | 44.07 ± 0.33 µM | 500 mg/L | 1000 mg/L | 125 mg/L | 34.1 ± 0.55 µM | 22.5 µM | 31.3 mg/L | >1000 mg/L | 0.98 mg/L | 1000 mg/L | 7.8 mg/L | >1000 mg/L | 7.8 mg/L | 500 mg/L | 125 mg/L | 65.25 ± 0.63 µM | >1000 mg/L | 
O.O.[Cl][Cd][Cl].c1cncc(-c2nc3cccnc3[nH]2)c1 [C3, Cd(L3)Cl2∙2H2O] | 125 mg/L | 40.4 ± 0.41 µM | 1000 mg/L | 125 mg/L | 125 mg/L | 47.2 ± 2.1 µM | 34.5 ± 0.41 µM | 31.3 mg/L | 250 mg/L | 7.8 mg/L | 1000 mg/L | 7.8 mg/L | 125 mg/L | 15.6 mg/L | >1000 mg/L | >1000 mg/L | 55.7 ± 2.5 µM | 31.3 mg/L | 
Brc1cnc2[nH]c(-c3cccnc3)nc2c1.O.O.[Cl][Cd][Cl] [C4, Cd(L4)Cl2∙2H2O] | 1000 mg/L | 27.7 ± 0.9 µM | 250 mg/L | 500 mg/L | 125 mg/L | 37.3 ± 2.1 µM | 25.3 ± 1 µM | 31.3 mg/L | 1000 mg/L | 7.8 mg/L | 1000 mg/L | 7.8 mg/L | >1000 mg/L | 7.8 mg/L | 250 mg/L | 250 mg/L | 42.5 ± 0.96 µM | 1000 mg/L | 
O=C(O)c1cn(C2CC2)c2cc(N3CCNCC3)c(F)cc2c1=O [Cip, ciprofloxacin, reference compound] |  |  |  |  |  |  |  |  |  |  |  |  |  |  |  |  |  |  | MIC ([1]; Salmonella enterica): 0.061 µg/mL (≈ 0.184 µM); MIC (E. coli ATCC 25922; Escherichia coli, ATCC25922, Gram-negative bacteria): 0.015 µg/mL (≈ 0.0453 µM); MIC (K. pneumoniae ATCC 13883; Klebsiella pneumoniae, ATCC13883, Gram-negative bacteria): 0.12 µg/mL (≈ 0.362 µM); MIC (P. aeruginosa ATCC 9027; Pseudomonas aeruginosa, ATCC9027, Gram-negative bacteria): 0.49 µg/mL (≈ 1.48 µM); MIC (P. mirabilis ATCC 12453; Proteus mirabilis, ATCC12453, Gram-negative bacteria): 0.03 µg/mL (≈ 0.0905 µM)
